# Patent US20080090916A1, “Compounds for Treating Urinary Incontinence” (priority 2005, published 2008)
# “Also recorded” adds a separate entry of the source.
# Tests used:
# [1] = test system: pig vesicourethral junction sphincter muscle; assay: Functional assay: dose response on isolated pig vesicourethral junction sphincter muscle strips; format: cell-based
# Source text: Samples of female white landrace pig bladder and urethra were obtained from freshly slaughtered pigs at the local abattoir. The pigs were killed by exsanguination after initial stunning by electric shock. The anus, rectum, bladder and urethra were then excised en bloc during evisceration and immediately transferred into pre oxygenated Krebs' solution (1 mmol/l: NaCl 120, KCl 5.9 NaHCO3 15.4, CaCl2 2.5, MgCl2 1.2, glucose 11.5) and transported to the laboratory, where they were stored in the refrigerator (at 4° C.) until ready to be processed.
# The location of the vesicourethral junction sphincter was then identified. The bladders were inflated via a transurethral catheter with 200 ml. fluid. The fluid was then gently squeeze towards the outlet, until a sharp narrowing of the bladder base becomes apparent (Dass, 1997; Dass et al., 2001). Tissue sections from this region were then denuded of urothelium, and dissected transversely into a number of muscle strips.
# Muscle strips measuring about 5-6 mm by 2-3 mm with an average weight of 7 mg were dissected, fine (5/0) silk threads were tied at each end of the strips and each strip mounted vertically in a 0.2 ml capacity, perspex organ bath between two recessed platinum electrodes through which electrical field stimulation (EFS) could be delivered. Strips were constantly superfused with Krebs' solution (37° C.) at a rate of 1.5 ml 1 min. The Krebs' solutions were gassed with 97% oxygen 3% carbon dioxide. Drugs were delivered by substituting drug containing solutions of the desired concentration for Krebs' solutions.
# The apparatus comprised of six organ baths in parallel allowing the study of six strips simultaneously as described by Brading and Sibley (1983). Each channel was calibrated with a 1 g weight attached to the transducer before each experiment, and tissues were tensioned to 1 g after mounting. Isomeric tension generated by the strips was measured using isomeric force displacement transducers, Pioden Dynamometer UFI transducers (Pioden Controls Ltd, Canterbury, Kent) or AD Instruments MLT050/D force transducers, amplified (Harvard Transducer/Amplifier, Harvard Apparatus Ltd, Edenbridge, Kent) and analyzed using MacLab Data Acquisition system (AD Instruments, Sydney, Australia) or AD Instruments OCTAL Bridge Amplifier connected to Power Lab/8SP (AD Instruments, Sydney, Australia) and Chart v3.6 software (Macintosh) or Chart v5 (PC).
# Dose response curves for the various compounds were constructed by testing one drug on a pair of strip in each experiment. The preparations were subjected to a sequence of successive 10 s […] applications of increasing doses of drugs with intervening washout periods.
# 1R,2S-methoxamine hydrochloride, the compound of formula (Ia) and the compound of formula (III) were made available by Norgine International Research, Middlesex.
# Responses were reported as either grams of tension or % maximum force and given as mean values ±SEM. EC50 values were used as a measure of potency. The EC50 values were measured from the graph of dose response curve using the kaleidograph graphical software applications. Results were assessed using statistical analysis software, StatView 5.0 (SAS Institute Inc.) using ANOVA followed by Fisher's test. Significant difference between data was assumed with p<0.05.
# [2] = test system: vesicourethral junction sphincter muscle strips; assay: Enzyme assay: regeneration of 1R,2S-methoxamine from compound (Ia) by gamma glutamyl transferase, reaction product tested on muscle strips; format: cell-based, pig; conditions: for response of muscle strips: 0.3 mM
# Description: Regeneration of 1R,2S-methoxamine from the Compound of Formula (Ia)
# Into a clean glass vial (1 ml volume) the following reaction mixtures were pipetted as follows:
# 200 μl compound of formula (Ia), 10 mg/ml in Tris buffer (mol. wt. 376, therefore=2 mg compound of formula (Ia)=5.3 μMoles), 100 μl solution E
# Reaction product of groups 1, 2 and 3 were only tested for biological activity after 30 minutes of incubation period at 37° C. while that of group 4 were also tested after, 10, 30 and 60 minutes of incubation period. A 5 h group of which reaction mixture indicated in group four were diluted by two fold after 30 min incubation were also tested for biological activity.
# Gamma glutamyl transferase, 2-1-18 porcine kidney was purchased from Calzyme Labs San Luis Obispo, Calif. 93401 USA, glyclglycine was obtained from Acros Organics, New Jersey, USA while L-glutamic acid 5-(4-nitroanilide) was purchased from Fluka Chemie Switzerland.
# The reaction mixture was incubated in HOT BOX oven, size one incubator made by Gallenpark, England, while the absorbance was measured (@λmax 405 nm), using Anthos 2020 UV/VIS spectrophotometer.
# Representative traces of pig vesicourethral junction sphincter muscle response to various enzyme reaction products are shown in FIG. 3 and representative traces of pig proximal sphincter muscle response to various enzyme reaction products are shown in FIG. 4. The enzyme reaction products tested are as follows: • FIG. 3a-50 mM Tris HCl buffer; • FIG. 3b-50 mM Tris HCl buffer, gamma glutamyl transferase. • FIG. 3c-50 mM Tris HCl buffer, MgCl2.6H2O, glycylglycine, compound of formula (Ia); • FIG. 4a-50 mM Tris HCl buffer, MgCl2.6H2O, glycylglycine, gamma glutamyl transferase, compound of formula (Ia); • FIG. 4b-0.3 mM 1R,2S-methoxamine.
smiles,measurement,setting,value
"COc1ccc(OC)c([C@@H](O)[C@H](C)NC(=O)CC[C@H](N)C(=O)O)c1 [compound of formula (Ia), (S)-2-Amino-4-[(1S,2R)-2-(2,5-dimethoxyphenyl)-2-hydroxy-1-methyl-ethylcarbamoyl]butyric acid]",EC50,"[1]; Sus scrofa, contraction, from dose response curve, read-out: relative potencies (EC50)",4.64 mM
same,contractile response of muscle strip (representative traces),"[1]; compound alone, FIG. 1",no significant contraction; also recorded: little or no activity
same,response over the dose range tested,[1]; dose range 10^−6M-10^−2M,failed to evoke any appreciable response
same,response of muscle strips,[2]; prepared in saline,1.15 g
same,response of muscle strips,[2]; prepared in tris buffer,1.22 g
same,reduction of bladder activity of the reaction mixture,[2]; 2-fold dilution post 30 min incubation with the enzyme,38%
same,contractile response,"[2]; Mg^2+-glycylglycine-compound-enzyme mixture, 30 min incubation",1.62 g
same,contractile response of pig bladder neck muscle,"[2]; administered with gamma glutamyl transferase and glycylglycine, FIG. 4a",pronounced well defined contractile response
same,contractile response,"[2]; buffer-Mg^2+-glycylglycine-compound, no enzyme, 30 min incubation",0.12 g
same,contractile response,"[2]; reaction mixture with enzyme, 10 min incubation",1.52 g
same,contractile response,"[2]; reaction mixture with enzyme, 60 min incubation",1.10 g
